From patent US20120016009A1, “Optimized Methods For Delivery Of DSRNA Targeting The PCSK9 Gene” (priority 2008, published 2012)
In the oligonucleotide strings, read from the 5' end, every base follows the letter of its sugar. An asterisk marks phosphorothioate; unmarked linkages are phosphodiester. Other units and linkages are bracketed, terminal groups are in braces. A string of capitals states the bases alone. d = 2'-deoxy (DNA); r = 2'-OH (RNA)

Tested on: PCSK9 mRNA
Test: PCSK9 siRNA screening in HepG2 cells (lipofectamine 2000 transfection, PCSK9 mRNA by Quantigene, normalized to GAP-DH)
Type: cell-based, human
Conditions: for Mean percent remaining mRNA transcript at siRNA concentration/in cell type 30 nM/HepG2: 30 nM siRNA; for Mean percent remaining mRNA transcript at siRNA concentration/in cell type 3 nM/HepG2: 3 nM siRNA; for Mean percent remaining mRNA transcript at siRNA concentration/in cell type 100 nM/HepG2: 100 nM siRNA
Procedure: HuH-7 cells were obtained from JCRB Cell Bank (Japanese Collection of Research Bioresources) (Shinjuku, Japan, cat. No.: JCRB0403) Cells were cultured in Dulbecco's MEM (Biochrom AG, Berlin, Germany, cat. No. F0435) supplemented to contain 10% fetal calf serum (FCS) (Biochrom AG, Berlin, Germany, cat. No. S0115), Penicillin 100 U/ml, Streptomycin 100 μg/ml (Biochrom AG, Berlin, Germany, cat. No. A2213) and 2 mM L-Glutamin (Biochrom AG, Berlin, Germany, cat. No K0282) at 37° C. in an atmosphere with 5% CO2 in a humidified incubator (Heraeus HERAcell, Kendro Laboratory Products, Langenselbold, Germany) HepG2 and HeLa cells were obtained from American Type Culture Collection (Rockville, Md., cat. No. HB-8065) and cultured in MEM (Gibco Invitrogen, Karlsruhe, Germany, cat. No. 21090-022) supplemented to contain 10% fetal calf serum (FCS) (Biochrom AG, Berlin, Germany, cat. No. S0115), Penicillin 100 U/ml, Streptomycin 100 μg/ml (Biochrom AG, Berlin, Germany, cat. No. A2213), 1× Non Essential Amino Acids (Biochrom AG, Berlin, Germany, cat. No. K-0293), and 1 mM Sodium Pyruvate (Biochrom AG, Berlin, Germany, cat. No. L-0473) at 37° C. in an atmosphere with 5% CO2 in a humidified incubator (Heraeus HERAcell, Kendro Laboratory Products, Langenselbold, Germany).
For transfection with siRNA, HuH7, HepG2, or HeLa cells were seeded at a density of 2.0×10^4 cells/well in 96-well plates and transfected directly. Transfection of siRNA (30 nM for single dose screen) was carried out with lipofectamine 2000 (Invitrogen GmbH, Karlsruhe, Germany, cat. No. 11668-019) as described by the manufacturer.
24 hours after transfection HuH7 and HepG2 cells were lysed and PCSK9 mRNA levels were quantified with the Quantigene Explore Kit (Genosprectra, Dumbarton Circle Fremont, USA, cat. No. QG-000-02) according to the protocol. PCSK9 mRNA levels were normalized to GAP-DH mRNA. For each siRNA eight individual datapoints were collected. siRNA duplexes unrelated to PCSK9 gene were used as control. The activity of a given PCSK9 specific siRNA duplex was expressed as percent PCSK9 mRNA concentration in treated cells relative to PCSK9 mRNA concentration in cells treated with the control siRNA duplex.
Tables 1b and 2b (and FIG. 6A) summarize the results and provide examples of in vitro screens in different cell lines at different doses. Silencing of PCSK9 transcript was expressed as percentage of remaining transcript at a given dose.
Very active sequences are those that have less than 60% of transcript remaining after treatment with a dose less than or equal to 100 nM. Active sequences are those that have less than 90% transcript remaining after treatment with a high dose (100 nM).

Row | Substance | Mean percent remaining mRNA transcript at siRNA concentration/in cell type 30 nM/HepG2 [%] | Mean percent remaining mRNA transcript at siRNA concentration/in cell type 3 nM/HepG2 [%] | IC50 [nM] | Mean percent remaining mRNA transcript at siRNA concentration/in cell type 100 nM/HepG2 [%]
1 | AD-9543: PCSK9 siRNA (sense rCrGrCrGrUrGrCrUrCrArArCrUrGrCrCrArArGdT*dT; antisense rCrUrUrGrGrCrArGrUrUrGrArGrCrArCrGrCrGdT*dT) | 51 |  |  | 
2 | AD-9544: PCSK9 siRNA (sense rUrGrArGrGrArCrCrArGrCrGrGrGrUrArCrUrGdT*dT; antisense rCrArGrUrArCrCrCrGrCrUrGrGrUrCrCrUrCrAdT*dT) | 68 |  |  | 
3 | AD-9545: PCSK9 siRNA (sense rArGrUrCrArArGrGrArGrCrArUrGrGrArArUrCdT*dT; antisense rGrArUrUrCrCrArUrGrCrUrCrCrUrUrGrArCrUdT*dT) | 31 | 43 |  | 
4 | AD-9546: PCSK9 siRNA (sense rUrArGrCrCrUrUrGrCrGrUrUrCrCrGrArGrGrAdT*dT; antisense rUrCrCrUrCrGrGrArArCrGrCrArArGrGrCrUrAdT*dT) | 32 |  |  | 
5 | AD-9547: PCSK9 siRNA (sense rCrUrCrGrCrArGrUrCrArGrArGrCrGrCrArCrUdT*dT; antisense rArGrUrGrCrGrCrUrCrUrGrArCrUrGrCrGrArGdT*dT) | 31 | 29 | 0.2 | 
6 | AD-9548: PCSK9 siRNA (sense rGrCrArGrUrCrArGrArGrCrGrCrArCrUrGrCrCdT*dT; antisense rGrGrCrArGrUrGrCrGrCrUrCrUrGrArCrUrGrCdT*dT) | 54 | 60 |  | 
7 | AD-9549: PCSK9 siRNA (sense rGrGrGrCrCrCrArCrArArCrGrCrUrUrUrUrGrGdT*dT; antisense rCrCrArArArArGrCrGrUrUrGrUrGrGrGrCrCrCdT*dT) | 50 |  |  | 
8 | AD-9550: PCSK9 siRNA (sense rGrArGrGrGrUrGrUrCrUrArCrGrCrCrArUrUrGdT*dT; antisense rCrArArUrGrGrCrGrUrArGrArCrArCrCrCrUrCdT*dT) | 36 |  |  | 
9 | AD-9551: PCSK9 siRNA (sense UGGCGGGUGGGUACAGCCGTsT; antisense CGGCUGUACCCACCCGCCATsT; as printed in the source, key not given here) | 91 |  |  | 
10 | AD-9552: PCSK9 siRNA (sense rArGrGrArGrCrArUrGrGrArArUrCrCrCrGrGrCdT*dT; antisense rGrCrCrGrGrGrArUrUrCrCrArUrGrCrUrCrCrUdT*dT) | 80 |  |  | 
11 | AD-9553: PCSK9 siRNA (sense rUrCrUrArGrArCrCrUrGrUrUrUrUrGrCrUrUrUdT*dT; antisense rArArArGrCrArArArArCrArGrGrUrCrUrArGrAdT*dT) | 27 | 22 | 0.02 | 
12 | AD-9554: PCSK9 siRNA (sense rUrUrCrUrArGrArCrCrUrGrUrUrUrUrGrCrUrUdT*dT; antisense rArArGrCrArArArArCrArGrGrUrCrUrArGrArAdT*dT) | 23 | 24 |  | 
13 | AD-9555: PCSK9 siRNA (sense rGrUrCrArGrGrArGrCrCrGrGrGrArCrGrUrCrAdT*dT; antisense rUrGrArCrGrUrCrCrCrGrGrCrUrCrCrUrGrArCdT*dT) | 34 |  |  | 
14 | AD-9556: PCSK9 siRNA (sense rUrGrGrUrGrGrArGrGrUrGrUrArUrCrUrCrCrUdT*dT; antisense rArGrGrArGrArUrArCrArCrCrUrCrCrArCrCrAdT*dT) | 46 |  |  | 
15 | AD-9557: PCSK9 siRNA (sense rCrCrArCrCrGrGrGrArArArUrCrGrArGrGrGrCdT*dT; antisense rGrCrCrCrUrCrGrArUrUrUrCrCrCrGrGrUrGrGdT*dT) | 96 |  |  | 75
16 | AD-9558: PCSK9 siRNA (sense rUrArUrCrUrUrUrUrGrGrGrUrCrUrGrUrCrCrUdT*dT; antisense rArGrGrArCrArGrArCrCrCrArArArArGrArUrAdT*dT) | 66 |  |  | 
17 | AD-9559: PCSK9 siRNA (sense rGrUrGrArCrCrArCrCrGrGrGrArArArUrCrGrAdT*dT; antisense rUrCrGrArUrUrUrCrCrCrGrGrUrGrGrUrCrArCdT*dT) | 35 |  |  | 
18 | AD-9560: PCSK9 siRNA (sense rGrArGrUrUrUrArUrUrCrGrGrArArArArGrCrCdT*dT; antisense rGrGrCrUrUrUrUrCrCrGrArArUrArArArCrUrCdT*dT) | 97 |  |  | 
19 | AD-9561: PCSK9 siRNA (sense rGrArCrArCrCrArGrCrArUrArCrArGrArGrUrGdT*dT; antisense rCrArCrUrCrUrGrUrArUrGrCrUrGrGrUrGrUrCdT*dT) | 64 |  |  | 
20 | AD-9562: PCSK9 siRNA (sense rUrCrUrCrCrUrArGrArCrArCrCrArGrCrArUrAdT*dT; antisense rUrArUrGrCrUrGrGrUrGrUrCrUrArGrGrArGrAdT*dT) | 46 | 51 |  | 
21 | AD-9563: PCSK9 siRNA (sense rCrGrCrUrGrCrCrGrGrCrArArCrUrUrCrCrGrGdT*dT; antisense rCrCrGrGrArArGrUrUrGrCrCrGrGrCrArGrCrGdT*dT) | 103 |  |  | 
22 | AD-9564: PCSK9 siRNA (sense rUrCrArUrUrGrGrUrGrCrCrUrCrCrArGrCrGrAdT*dT; antisense rUrCrGrCrUrGrGrArGrGrCrArCrCrArArUrGrAdT*dT) | 120 |  |  | 
23 | AD-9565: PCSK9 siRNA (sense rUrArCrUrCrUrGrCrUrCrUrArUrGrCrCrArGrGdT*dT; antisense rCrCrUrGrGrCrArUrArGrArGrCrArGrArGrUrAdT*dT) | 74 |  |  | 
24 | AD-9566: PCSK9 siRNA (sense rUrGrCrCrGrGrGrCrCrCrArCrArArCrGrCrUrUdT*dT; antisense rArArGrCrGrUrUrGrUrGrGrGrCrCrCrGrGrCrAdT*dT) | 38 |  |  | 
25 | AD-9567: PCSK9 siRNA (sense rCrGrCrUrGrUrGrUrGrGrArCrCrUrCrUrUrUrGdT*dT; antisense rCrArArArGrArGrGrUrCrCrArCrArCrArGrCrGdT*dT) | 41 |  |  | 
26 | AD-9569: PCSK9 siRNA (sense rArGrCrUrCrCrUrGrCrArCrArGrUrCrCrUrCrCdT*dT; antisense rGrGrArGrGrArCrUrGrUrGrCrArGrGrArGrCrUdT*dT) | 112 |  |  | 
27 | AD-9570: PCSK9 siRNA (sense rCrUrGrCrCrGrGrGrCrCrCrArCrArArCrGrCrUdT*dT; antisense rArGrCrGrUrUrGrUrGrGrGrCrCrCrGrGrCrArGdT*dT) | 42 |  |  | 35
28 | AD-9571: PCSK9 siRNA (sense rGrCrCrArGrGrUrGrCrUrGrCrCrUrGrCrUrArCdT*dT; antisense rGrUrArGrCrArGrGrCrArGrCrArCrCrUrGrGrCdT*dT) | 27 | 32 |  | 
29 | AD-9572: PCSK9 siRNA (sense rCrCrArGrGrUrGrCrUrGrCrCrUrGrCrUrArCrCdT*dT; antisense rGrGrUrArGrCrArGrGrCrArGrCrArCrCrUrGrGdT*dT) | 53 |  |  | 47
